Reference: patent US7906514B1, “Animal model and compounds identified via this model for treatment of chronic pain” (Trustees of Dartmouth College, priority 1999, dated 2011)

What was measured:
[1] = dose without acute neurotoxic effects; Morris et al. 1992; cited from earlier work
[2] = tested on: rat model for lower back pain (L5 spinal root loosely ligated with chromic gut); test: Gait disturbance and hind paw inversion testing after L5 spinal root injury; type: in vivo; conditions: phase I
Source text: The first phase of the study investigated three combinations of treatments: 1) Group A—methotrexate administration locally (intrathecally) to the surgical area immediately following surgery, followed by additional methotrexate administration locally at days 2 and 4 post-surgery; 2) Group B—saline administration locally to the surgical area immediately following surgery and at days 2 and 4 post-surgery; and 3) Group C—sham-operated animals that received methotrexate at the same time points. In all animals, gait disturbance and mechanical allodynia were assessed until animals were euthanized 7 days after surgery. […]
(§1) Male Holtzman rats (200-250 g) were used. All surgical procedures were performed under inhalation anesthesia (induced at 4% and maintained at 2% halothane in 100% O2). Spinal root, dorsal root ganglia, and the adjacent dura mater on the left side at L5 were carefully exposed by hemilaminectomy using a surgical microscope. Five 0.3 cm pieces of 4-0 chromic gut ligature were laid adjacent to the root and secured by two loose ligatures of 5-0 chromic gut. The muscle layers and incision were closed with 3-0 silk suture and staples, respectively.
For phase I, three combinations of treatments were investigated. Methotrexate was reconstituted to 10 mg/ml in saline and pH adjusted to 7.4. Group A represented root injury plus methotrexate treatment. […]

[3] = tested on: rat model for lower back pain (L5 spinal root loosely ligated with chromic gut); test: Mechanical sensitivity (allodynia) testing with von Frey filaments after L5 spinal root injury; type: in vivo
Source text: The first phase of the study investigated three combinations of treatments: 1) Group A—methotrexate administration locally (intrathecally) to the surgical area immediately following surgery, followed by additional methotrexate administration locally at days 2 and 4 post-surgery; 2) Group B—saline administration locally to the surgical area immediately following surgery and at days 2 and 4 post-surgery; and 3) Group C—sham-operated animals that received methotrexate at the same time points. In all animals, gait disturbance and mechanical allodynia were assessed until animals were euthanized 7 days after surgery.
In the second phase of the study, animals were assessed out to day 14 post-surgery and given additional treatments as follows: 1) Group D—surgically prepared, saline treated rats were then given methotrexate locally during the second week of the study on days 7, 9, and 11 post-surgery; 2) Group E—surgically prepared, saline treated rats were then given saline locally during the second week on days 7, 9, and 11 post-surgery; and 3) Group F—surgically prepared, methotrexate treated rats were then given saline during the second week on days 7, 9, and 11 post-surgery. Gait disturbance and mechanical allodynia were assessed before surgery and at days 2, 4, 7, 9, 11, and 14 until euthanization.
as §1
For phase I, three combinations of treatments were investigated. Methotrexate was reconstituted to 10 mg/ml in saline and pH adjusted to 7.4. Group A represented root injury plus methotrexate treatment. Immediately following surgery and prior to incision closure, Group A rats received 1 mg/kg of methotrexate (volume 100 ul/kg) by injecting through a PE-10 catheter through an incision in the exposed dura mater to a position 3 cm central to the incision. The PE-10 catheter was pulled out and the same dose and volume of methotrexate (1 mg/kg) was administered around the injured nerve roots (total dose 2 mg/kg). The wound was closed. On days 2 and 4 post-surgery, under inhalation anesthesia, methotrexate was again administered by opening the surgical wound and repeating delivery of methotrexate as before.
Group C animals represented sham-operated plus methotrexate treatment. In these animals, the L5 nerve roots were exposed but not injured. Methotrexate was administered using the same dose, protocol, and time points as Group A.
For phase II of the study, the protocol was extended to day 14 with the surgery, delivery method, volume and doses being identical to those of the phase I study. Rats were divided into 3 groups. Group D represented saline plus methotrexate treatment. Saline was administered at the time of surgery and at days 2 and 4 post-surgery. Methotrexate was administered in the second week at days 7, 9 and 11 post-surgery.
Group F represented methotrexate plus saline treatment. In these rats, methotrexate was administered during surgery and at days 2 and 4 post-surgery. Saline was then administered on days 7, 9, and 11 post-surgery. Gait disturbance and mechanical allodynia were also assessed in these animals at days 2, 4, 7, 9, 11 and 14 (day of euthanization).
Animals were tested for 3 days pre-operatively to acclimate to the testing apparatus and the experimenter, and to obtain baseline values. All testing was performed by experimenters blinded to the treatments.

[4] = tested on: OX-42 and GFAP (glial fibrillary acidic protein); test: Immunohistochemical analysis of spinal glial activation; type: in vivo, rat; conditions: methotrexate-treated groups vs saline-treated groups; L5 spinal cord sections
Description: All animals were perfusion fixed for immunohistochemistry. Under deep anesthesia (sodium pentobarbital, 50 mg/kg intraperitoneally) rats were euthanized by transcardiac perfusion. Rats were then perfused with 300 ml phosphate buffered saline (PBS) followed by 500 ml 4% paraformaldehyde in 0.1 M PBS. Following perfusion and laminectomy, the lesioned L5 roots were verified and traced to their site of entry into the spinal cord. Appropriate L5 spinal cord segments were harvested and post fixed for 4 hours in fixative and then cryoprotected 2-3 days in 30% sucrose/PBS at 4° C. The segments were then freeze-mounted in OCT embedding medium on cork blocks for cryostat sectioning.
Optimal dilutions and incubation time periods for each antibody and lot were determined prior to the study. Immunohistochemistry was performed with the avidin-biotin technique on free-floating 20 μm sections. Elimination of the primary antibody was performed in each run as a negative control. Monoclonal antibody OX-42 (labeling the complement receptor-3, CDllb) was used as a microglial marker at a dilution of […]. A rabbit polyclonal antibody to glial fibrillary protein (anti-GFAP, DAKO, Carpintra, Calif.) was used as an astrocytic marker at a dilution of 1:20,000. Five or more sections per animal were prepared from the L5 segments in each run. […]

[5] = tested on: rat model for lower back pain (L5 spinal root loosely ligated with chromic gut); test: Gross pathological inspection of injured nerve roots following euthanasia; type: in vivo; conditions: methotrexate-treated groups (A, D and F) compared to saline-treated groups (B and E)
Description: In all groups except the sham-operated animals (Group C), the treated nerve roots were encapsulated with dense granulation tissue and fibrous adhesions.
as §1
For phase I, three combinations of treatments were investigated. Methotrexate was reconstituted to 10 mg/ml in saline and pH adjusted to 7.4. Group A represented root injury plus methotrexate treatment. Immediately following surgery and prior to incision closure, Group A rats received 1 mg/kg of methotrexate (volume 100 ul/kg) by injecting through a PE-10 catheter through an incision in the exposed dura mater to a position 3 cm central to the incision. […]
Group F represented methotrexate plus saline treatment. […] Gait disturbance and mechanical allodynia were also assessed in these animals at days 2, 4, 7, 9, 11 and 14 (day of euthanization).

CN(Cc1cnc2nc(N)nc(N)c2n1)c1ccc(C(=O)N[C@@H](CCC(=O)O)C(=O)O)cc1 [methotrexate, Methotrexate]
administered dose (1 mg/kg) as fraction of the maximally tolerated dose for rats [1]: one quarter | postoperative changes in hind paw inversion or gait disturbance ([2]; Group A (injury+methotrexate, 1 mg/kg intrathecal + 1 mg/kg perineural at surgery, days 2 and 4) vs Group B (saline)): no significant difference | hind paw inversion or gait disturbance ([2]; Group C, sham-operated + methotrexate at surgery, days 2 and 4): did not demonstrate any hind paw inversion or gait disturbance | mechanical allodynia, overall conclusion ([3]; lower back pain model with radiculopathy, local administration): significantly attenuates | mechanical allodynia ([3]; phase I, Group A (injury+methotrexate at surgery, days 2 and 4), toward baseline after peak at day 2, to day 7): significantly reduced | mechanical allodynia response after surgery ([3]; phase I, Group C (sham-operated+methotrexate)): minimal (minimal (0-5)) | mechanical allodynia during the second week ([3]; phase II, Group D (saline in week 1, methotrexate on days 7, 9, 11), existing allodynia, Group E (saline) persisted): significantly decreased | allodynia at day 7 post-surgery ([3]; phase II, Group F (methotrexate at surgery, days 2 and 4) compared to Groups D and E): significantly attenuated | allodynic response during the second week ([3]; phase II, Group F compared to Group E): significantly lower | level of glial activation (OX-42, GFAP) [4]: significant difference | granulation and adhesion around the injured nerve roots [5]: markedly decreased
